Test results reported in article PMC10675071, “Identification of Crocetin as a Dual Agonist of GPR40 and GPR120 Responsible for the Antidiabetic Effect of Saffron” (Nutrients, 2023).

Assays:
Assay type in all cases: cell-based
GPR40 [1] = target: T1, GPR40 (Homo sapiens, UniProt O14842); assay: SRE-luciferase (Gq) reporter assay, CHO cells, dose-response curve; settings: agonist
T1 construct: gene FFAR1; plasmid of untold source and species, transiently cotransfected with SRE-Luc or CRE-Luc in CHO-K1 cells
T1 sequence (O14842 whole entry): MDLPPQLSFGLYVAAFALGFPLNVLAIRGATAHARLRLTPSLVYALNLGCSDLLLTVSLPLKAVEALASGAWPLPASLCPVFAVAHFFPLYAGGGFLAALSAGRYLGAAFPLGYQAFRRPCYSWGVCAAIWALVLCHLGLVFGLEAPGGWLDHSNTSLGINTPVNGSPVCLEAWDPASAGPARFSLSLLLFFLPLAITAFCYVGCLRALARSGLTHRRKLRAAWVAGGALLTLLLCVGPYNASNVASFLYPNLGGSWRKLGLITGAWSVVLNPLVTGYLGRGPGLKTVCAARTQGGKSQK

GPR40 [2] = target: T1, GPR40; assay: SRE-luciferase (Gq) reporter assay, CHO cells
GPR40 [3] = target: T1, GPR40; assay: SRE-luciferase (Gq) reporter assay, CHO cells; settings: 24 h, 37 °C

CCCCC/C=C\C/C=C\CCCCCCCC(=O)O [linoleic acid]
SRE-luciferase (Gq) reporter assay, CHO cells, dose-response curve (GPR40 [1]): increasing crocetin concentrations on dose−response curves of LA

CC(/C=C/C=C(\C)C(=O)O)=C\C=C\C=C(C)\C=C\C=C(/C)C(=O)O [crocetin]
EC50 (GPR40 [2]): 2910 ± 320 nM

CC(/C=C/C=C(\C)C(=O)O[C@@H]1O[C@H](CO[C@@H]2O[C@H](CO)[C@@H](O)[C@H](O)[C@H]2O)[C@@H](O)[C@H](O)[C@H]1O)=C\C=C\C=C(C)\C=C\C=C(/C)C(=O)O[C@@H]1O[C@H](CO[C@@H]2O[C@H](CO)[C@@H](O)[C@H](O)[C@H]2O)[C@@H](O)[C@H](O)[C@H]1O [crocin]
Emax (GPR40 [3]): 6.00%
